Results as given in PMC10726354, “Design, Synthesis, and Biological Evaluation of Small-Molecule-Based Radioligands with Improved Pharmacokinetic Properties for Imaging of Programmed Death Ligand 1” (Journal of Medicinal Chemistry, 2023).
Several values for one entry are separate records, joined by “and”; a condition that tells them apart may be missing. Equal values may be shown once.

How the values were obtained:
[1] = target: T1, PD-L1 (Homo sapiens, UniProt Q9NZQ7); experiment: Real-time radioligand binding (LigandTracer) on PC3 PD-L1 cells; conditions: for fold change of real-time binding affinity in presence vs absence of BSA: in either direction; for Kd: real-time binding
T1 construct: expressed in transfected cells; host or cells: PC3 cells (human prostate carcinoma), stably transduced
Experimental: Real-time radioligand binding using the ligand tracer platform was performed, similar to our previously reported tracer candidates. As we aimed at reducing the albumin binding of the herein presented compounds, we performed measurements in the presence or absence of a mouse physiological concentration of BSA (2.5 g/dL).
For real-time binding to assess kinetics (association rate constant ka and dissociation rate constant kd) and dissociation constant (KD), LigandTracer (Yellow, Ridgeview Instruments AB, Sweden) was employed. Approximately 1.2 × 10^6 cells (in 3 mL medium) were seeded to one side of a Petri dish (Nunc) 1 day prior to experiments as described before.[45] Binding was then performed at room temperature (using CO2-independent medium, Gibco #18045088, Thermo Fisher Germany) with or without BSA (2.5%). First, association was determined by incubation with two concentrations (10 and 40 nM, 90 min each) of the ^64Cu-labeled PD-L1 ligands. Dissociation was then assessed by replacement with fresh medium for at least 2 h. Data were acquired in decay-corrected counts per second (CPS), and binding data were then evaluated using TraceDrawer (1.9.2, Ridgeview Instruments AB, Sweden). Traces were inspected for spikes and irregularities and then normalized to their own baseline (=0%) and highest value (=100%). Data were then fitted using a one-to-one interaction, accounting for the bulk effect.

[2] = system: PC3 PD-L1-overexpressing tumor; experiment: Small-animal PET, uptake in PD-L1-overexpressing tumor; conditions: for SUVmax PC3 PD-L1 overexpressing tumor: tracer only; for SUVmax PC3 PD-L1 overexpressing tumor +block: blocker i.v. before tracer: Cu-1 100 nmol 1, Cu-2 100 nmol 2, Cu-3 1000 nmol 4, Cu-4 500 nmol 4, Cu-6 250 nmol 1 (~5 min prior), Cu-5 100 nmol 5 (~30 min prior)
Experimental: (§1) Changes are reported as % change of the SUVmax of the PD-L1 expressing over the respective value of the mock tumor. Similarly, the effect of blocking is reported as % change of the SUVmax of the animal injected with cold compound over that of the animal that received tracer only.
(§2) Animal experiments were performed in accordance with the guidelines of the German Regulations for Animal Welfare, approved by the Saxonian Ethical Committee for Animal Experiments (reference number DD24.1-5131/449/49). Male athymic NMRI-nude mice (Rj: NMRI-Foxn1^nu/nu, Janvier Laboratories, Le Genest-Saint-Isle, France) between 8 and 22 weeks of age were used. Under general anesthesia, [∼10% desflurane (Baxter, Deerfield, IL, USA) in 30 vol % oxygen + air] and warming, the animals were subcutaneously injected with 3–5 × 10^6 PC3-PD-L1 and PC3-mock cells [in 50 μL PBS +50 μL Matrigel (Corning, Glendale, USA)] into the right and left thigh, respectively. Tumor growth was monitored three times a week by caliper measurements, and mice with tumor sizes above 7 mm were included in the experiments.
(§3) For PET studies, general anesthesia was induced as described above. PET and X-ray computed tomography (CT) were performed in a dedicated small animal nanoScan PET/CT scanner, with four animals imaged simultaneously (Mediso, Budapest, Hungary). CT images were employed for attenuation correction and anatomical referencing. Animals received three individual scans corresponding to 0–2 h (dynamic) and 4.5 and 24 h (static) postinjection.
(§4) PD-L1 radiotracer candidates (in 300 μL sterile 0.9% NaCl/HEPES buffer, pH 6–7, between 7 and 12 MBq, molar activities > 12 GBq/μmol) were delivered over 30 s i.v. (lateral tail vein) and PET acquisition started simultaneously. For blocking condition, a defined quantity of compound (the same unlabeled compound, one from the same series or BMS-1166) was diluted in sterile saline and injected i.v. approximately 5 min prior to the radiotracer. Animals not subjected to blocking were injected with vehicle at the same time.
(§5) Three-dimensional list mode data were binned using the 400–600 keV energy window and sorted into 36 time frames (15 × 10 s, 5 × 30 s, 5 × 60 s, 4 × 300 s, 3 × 600 s, 4 × 900 s). Time frames were reconstructed using the Tera-TomoTM 3D algorithm applying a voxel size of 0.4 mm and corrections for decay, scatter, and attenuation.
(§6) Three-dimensional volumes of interest were delineated applying fixed thresholding at 35% of the measured maximum intensity. Standardized uptake values (SUV = [MBq detected activity/mL tissue]/[MBq injected activity/g body weight], […]) were determined in selected volumes of interest, among these PD-L1 and mock tumors.
(§7) 14. In vivo: PET- SUV data
(§8) Standardized uptake values (SUVmax)
(§9) Supplementary table 1: In vivo standardized uptake values (SUVmax ± standard deviation) of 64Cu-labeled third series compounds [64Cu]Cu-1-6 at 1.5 (1–2), 4.5 (4–5) and 24.5 (24–25) hours
(§10) post injection (p.i.). Compounds used for blocking are described for each tracer and were intravenously injected in sterile saline at stated time before the radiotracer. Animals designated for
(§11) tracer-only received matched type and volume of vehicle at the same time.

[3] = Proteolytic stability in human serum, radio-HPLC; assay type: in vitro ADME; conditions: 37 °C
Experimental: Potential degradation of the ^64Cu-labeled radiotracers by proteolysis was investigated by incubation in human serum at 37 °C for up to 48 h. At three different time points (1, 24, and 48 h), a sample was withdrawn, and serum proteins were precipitated. The radio-HPLC chromatograms of all ^64Cu-labeled radiotracers (Figure S111A–D, system D) show a major peak at ∼6.4–6.7 min indicating the radiotracers. After 1 h, the radiotracers [^64Cu]Cu-3–6 are 94.1, 98.3, 94.0, and 96.3% intact, respectively.
Similar to PBS stability studies, the mixture containing the radiolabeled compound was diluted 1:10 with human serum. The solution was incubated at 37 °C with shaking at 300 rpm. At each time point (1, 24, and 48 h), an aliquot was withdrawn and added to a double amount of “supersol” (water containing 20% v/v EtOH, 5% v/v 5 mM aqueous EDTA, 0.5% v/v Triton X-100, 0.1% m/v saponin, 0.05% v/v 0.5 mM aqueous o-phenanthroline) to precipitate serum proteins. The suspension was cooled on ice for 5 min and then centrifugated for 5 min at 12,000g. A small amount of the supernatant was analyzed by radio-HPLC (PerkinElmer, Massachusetts, United States system D, Supporting Information). Evaluation and graphical plotting were performed with OriginPro 9.0.

[4] = system: PC3 mock tumor; experiment: Small-animal PET, uptake in mock tumor; conditions: for SUVmax PC3 mock tumor: tracer only; for SUVmax PC3 mock tumor +block: blocker i.v. before tracer: Cu-1 100 nmol 1, Cu-2 100 nmol 2, Cu-3 1000 nmol 4, Cu-4 500 nmol 4, Cu-6 250 nmol 1 (~5 min prior), Cu-5 100 nmol 5 (~30 min prior)
Experimental: as §1, §2, §3, §4, §5, §6, §7, §8, §9, §10, §11

[5] = Radiotracer production data: stability of the product to in vivo experiments; assay type: physicochemical
[6] = medium only (no BSA), n = 2, mean ± S.D.
[7] = medium only (no BSA), n = 2, mean ± S.D., room temperature
[8] = 1–2 h (1.5 h) p.i., blocker: Cu-3 1000 nmol 4, Cu-4 500/1000 nmol 4, Cu-5 100 nmol 5, Cu-6 250 nmol BMS-1166
[9] = 4–5 h (4.5 h) p.i., blocker: Cu-3 1000 nmol 4, Cu-4 500/1000 nmol 4, Cu-5 100 nmol 5, Cu-6 250 nmol BMS-1166

T1 sequence (Q9NZQ7 19-290): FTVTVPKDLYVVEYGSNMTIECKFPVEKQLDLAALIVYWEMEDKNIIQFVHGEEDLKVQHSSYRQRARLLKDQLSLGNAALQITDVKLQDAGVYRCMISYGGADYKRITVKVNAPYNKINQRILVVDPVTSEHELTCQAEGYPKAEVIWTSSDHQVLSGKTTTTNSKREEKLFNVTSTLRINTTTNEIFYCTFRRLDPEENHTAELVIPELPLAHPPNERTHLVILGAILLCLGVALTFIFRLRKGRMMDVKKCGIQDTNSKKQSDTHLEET

SMILES | fold change of real-time binding affinity in presence vs absence of BSA [1] | Bmax [normalized (%)] ([1]; medium + 2.5% BSA, n = 1) | ka (association rate constant) ([1]; medium + 2.5% BSA, n = 1) | Bmax [normalized (%)] [1, 6] | ka (association rate constant) [1, 7] | Kd ([1]; medium + 2.5% BSA, n = 1) | Kd [1, 6] | blocking effect: % change of SUVmax in PD-L1 tumor vs tracer-only [2, 8] | % change of SUVmax of the PD-L1 expressing tumor over the mock tumor ([2]; 1–2 h p.i.) | SUVmax PC3 PD-L1 overexpressing tumor ([2]; 1.5 (1–2) hours p.i.) | SUVmax PC3 PD-L1 overexpressing tumor +block ([2]; 1.5 (1–2) hours p.i.) | blocking effect: % change of SUVmax in PD-L1 tumor vs tracer-only [2, 9] | SUVmax PC3 PD-L1 overexpressing tumor ([2]; 4.5 (4–5) hours p.i.) | SUVmax PC3 PD-L1 overexpressing tumor +block ([2]; 4.5 (4–5) hours p.i.) | SUVmax PC3 PD-L1 overexpressing tumor ([2]; 24.5 (24–25) hours p.i.) | SUVmax PC3 PD-L1 overexpressing tumor +block ([2]; 24.5 (24–25) hours p.i.) | intact radiotracer in human serum after 1 h [3] | SUVmax PC3 mock tumor ([4]; 1.5 (1–2) hours p.i.) | SUVmax PC3 mock tumor +block ([4]; 1.5 (1–2) hours p.i.) | SUVmax PC3 mock tumor ([4]; 4.5 (4–5) hours p.i.) | also measured
Cc1c(COc2cc(OCc3cncc(S(C)(=O)=O)c3)c(CN[C@@H](CS(=O)(=O)O)C(=O)NCCP(=O)(O)O)cc2Cl)cccc1-c1cccc(OCc2cn(CCCN3CCN(C(=O)[C@H](CS(=O)(=O)O)NC(=O)CC[C@H](C(=O)O)N4CCN(CC(=O)O)CCN(CC(=O)O)CC4)CC3)nn2)c1C.[64Cu+2] [[^64Cu]Cu-5] | ≤ 2 fold | 219% | 1130 M/s | 446 ± 274% | (1.14 ± 0.60) × 10^3 (M s)^−1 | 100 nM | 110 ± 53 nM | −46% | 306% | 3.25 | 1.75 ± 0.35 | −6% and −5% | 1.75 | 1.65 ± 0.15 | 1.2 | 1.55 ± 0.05 | 94.0% | 0.80 ± 0.10 | 0.75 ± 0.05 | 1.1 ± 0.1 | SUVmax PC3 PD-L1 overexpressing tumor ([2]; 1.5 (1–2) hours p.i., listed as [64Cu]Cu-5): 3.25 ± 0.25; % change of SUVmax of the PD-L1 expressing tumor over the mock tumor ([2]; 4–5 h p.i.): +59%; SUVmax PC3 PD-L1 overexpressing tumor ([2]; 4.5 (4–5) hours p.i., listed as [64Cu]Cu-5): 1.75 ± 0.15; blocking effect: % change of SUVmax in PD-L1 tumor vs tracer-only ([2]; 24–25 h (24.5 h) p.i., blocker: Cu-1, Cu-2 100 nmol unlabeled compound, Cu-3 1000 nmol 4, Cu-4 500/1000 nmol 4, Cu-5 100 nmol 5, Cu-6 250 nmol BMS-1166): +29%; % change of SUVmax of the PD-L1 expressing tumor over the mock tumor ([2]; 24–25 h p.i.): +14%; SUVmax PC3 PD-L1 overexpressing tumor ([2]; 24.5 (24–25) hours p.i., listed as [64Cu]Cu-5): 1.2 ± 0.8; SUVmax PC3 mock tumor +block ([4]; 4.5 (4–5) hours p.i.): 0.85 ± 0.05; SUVmax PC3 mock tumor ([4]; 24.5 (24–25) hours p.i.): 1.05 ± 0.65; SUVmax PC3 mock tumor +block ([4]; 24.5 (24–25) hours p.i.): 1.6 ± 0.00; Stability of the product to in vivo experiments [5]: > 99%
Cc1c(COc2cc(OCc3cncc(S(C)(=O)=O)c3)c(CN[C@@H](CS(=O)(=O)O)C(=O)NCCP(=O)(O)O)cc2Cl)cccc1-c1cccc(OCc2cn(CCCN3CCN(C(=O)[C@H](CP(=O)(O)O)NC(=O)CC[C@H](C(=O)O)N4CCN(CC(=O)O)CCN(CC(=O)O)CC4)CC3)nn2)c1C.[64Cu+2] [[^64Cu]Cu-6] | ≤ 2 fold | 65.3% | 3590 M/s | 107 ± 7.16% | (5.30 ± 0.52) × 10^3 (M s)^−1 | 41.4 nM | 22 nM and 22.2 nM | +25% | 121% | 1.83 ± 0.37 | 2.28 ± 0.46 | +16% | 1.55 ± 0.05 | 1.8 ± 0.3 | 2.2 ± 0.1 | 2.3 ± 0.4 | 96.3% | 0.83 ± 0.08 | 1.04 ± 0.15 | 1.35 ± 0.15 | blocking effect of BMS-1166 on SUVmax / tumor uptake ([2]; any time point, Cu-3: 750 nmol BMS-1166 intraperitoneally 60 min prior, Cu-6: 250 nmol BMS-1166 5 min before): no blocking effect; intact radiotracer in human serum at 48 h ([3]; 48 h): 93.4%; SUVmax PC3 mock tumor +block ([4]; 4.5 (4–5) hours p.i.): 1.7 ± 0.1; SUVmax PC3 mock tumor ([4]; 24.5 (24–25) hours p.i.): 2.2 ± 0.2; SUVmax PC3 mock tumor +block ([4]; 24.5 (24–25) hours p.i.): 3.05 ± 0.35; Stability of the product to in vivo experiments [5]: > 99%
